Measured values published in patent publication US11805773B1, “Nanocomposite including water-soluble nano-polymer and mesoporous silica nanoparticles encapsulated with azole derivatives” (KING FAISAL UNIVERSITY, priority 2023, dated 2023).

Row | melting point [°C] | Compound
1 | 120 to 122 | COc1ccc(C2CC(c3ccc(Cl)cc3Cl)=NN2c2nc(-c3ccccc3)cs2)cc1OC (stereo not shown) [1a, 2-(3-(2,4-dichlorophenyl)-5-(3,4-dimethoxyphenyl)-4,5-dihydro-1H-pyrazol-1-yl)-4-phenylthiazole]
2 | 158 to 159 | COc1ccc(C2CC(c3ccc(Cl)cc3Cl)=NN2c2nc(-c3ccc(Cl)cc3)cs2)cc1OC (stereo not shown) [1b, 4-(4-chlorophenyl)-2-(3-(2,4-dichlorophenyl)-5-(3,4-dimethoxyphenyl)-4,5-dihydro-1H-pyrazol-1-yl)thiazole]
3 | 140 to 141 | COc1ccc(C2CC(c3ccc(Cl)cc3Cl)=NN2c2nc(-c3ccc(Cl)cc3)cs2)cc1 (stereo not shown) [1d, 4-(4-chlorophenyl)-2-(3-(2,4-dichlorophenyl)-5-(4-methoxyphenyl)-4,5-dihydro-1H-pyrazol-1-yl)thiazole]
4 | 72 to 75 | COc1ccc(C2CC(c3ccc(Cl)cc3Cl)=NN2c2nc(-c3ccccc3)cs2)cc1 (stereo not shown) [1c, 2-(3-(2,4-dichlorophenyl)-5-(4-methoxyphenyl)-4,5-dihydro-1H-pyrazol-1-yl)-4-phenylthiazole]
